Experimental data published in publication PMC9267128, “New 2-[(4-Amino-6-N-substituted-1,3,5-triazin-2-yl)methylthio]-N-(imidazolidin-2-ylidene)-4-chloro-5-methylbenzenesulfonamide Derivatives, Design, Synthesis and Anticancer Evaluation” (International Journal of Molecular Sciences, 2022).
“Also recorded” adds a separate entry of the source.

Legend:
MCF-7 (breast cancer) = test: MTT cell viability assay, MCF-7; format: cell-based, human; settings: for IC50: Homo sapiens, MCF7, 72 h, MTT assay, 72 h of incubation; for Selectivity Index (SI) MCF-7: IC50 value toward HaCaT cells/IC50 value toward MCF-7
Summary of the method: (§1)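 Cells in DMEM with 10% FBS, 3 × 10^3 per well, exposed to compounds at 1–100 µM for 72 h at 37 °C. MTT at 0.5 mg/mL for 2 h, formazan dissolved in DMSO and read at 550 nm. Mean ± SD of at least three independent experiments, each in triplicate.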

HeLa (cervical cancer) = test: MTT cell viability assay, HeLa; format: cell-based, human; settings: for IC50: Homo sapiens, HeLa, MTT assay, 72 h of incubation; for Selectivity Index (SI) HeLa: IC50 value toward HaCaT cells/IC50 value toward HeLa
Summary of the method: (§2)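 HCT-116 and HeLa cells in DMEM/10% FBS exposed 72 h to compounds over 1–100 µM. Viability by MTT (0.5 mg/mL, 2 h, 37 °C), formazan dissolved in DMSO and read at 550 nm; mean ± SD of at least three independent experiments.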

HCT-116 (colon cancer) = test: MTT cell viability assay, HCT-116; format: cell-based, human; settings: for IC50: Homo sapiens, HCT-116, 72 h, MTT assay, 72 h of incubation; for Selectivity Index (SI) HCT-116: IC50 value toward HaCaT cells/IC50 value toward HCT-116
Summary of the method: as §2

HCT-116, MCF-7 and HeLa = test: MTT cytotoxicity, summary statements on all tested tumor cell lines together; format: cell-based, human; settings: MTT 72 h
Method: Compounds 20–162 were evaluated in vitro for their effects on the viability of three cancer cell lines: HCT-116 (colon cancer), MCF-7 (breast cancer) and HeLa (cervical cancer), as well as the non-cancerous keratinocyte cell line (HaCaT). […] Analysis was performed using an MTT assay after 72 h of incubation.
(§3) Cell viability was examined using the MTT [3-(4,5-dimethylthiazol-2-yl)-2,5-diphenyltetrazolium bromide] assay. Cells were seeded in 96-well plates at a density of 3 × 10^3 cells/well and treated for 72 h with the tested compounds in the concentration range of 1–100 µM. Then, MTT (0.5 mg/mL) was added to the medium and cells were further incubated for 2 h at 37 °C. In the next stage, cells were lysed with DMSO and the absorbance of the formazan solution was measured at 550 nm with a plate reader (1420 multilabel counter, Victor, Jügesheim, Germany). The experiment was performed in triplicate. Values are expressed as the mean ± SD of at least three independent experiments. Cisplatin was used as a positive control.

[1] = test system: T47D (breast cancer cell line); test: MTT assay, mutant p53 breast cancer cells T47D; format: cell-based; settings: Homo sapiens, T47D, 72 h of incubation
Method: (§4) Thus, the ability of the selected compounds to exert cytotoxic activity toward cell lines harboring mutant p53 was examined. Compounds displaying a high selectivity index (Table 6) were selected for the analysis of their activity toward ovarian and breast cancer cells with wild-type p53 (A2780, MCF-7) and mutant p53 (SKOV-3, T47D).
as §3
(§5) Compounds 48, 62, 134, 138 and 140 were further examined toward MCF7 (breast cancer cell line, ATCC, HTB-22), T47D (breast cancer cell line, DSMZ ACC 739), A2780 (ovarian carcinoma cell line, ECACC, 93112519), and SKOV3 (ovarian carcinoma cell line, ATCC, HTB-77) cells. Cells were grown in Dulbecco’s Modified Eagle Medium (DMEM) supplemented with 10% fetal bovine serum (Thermo Fisher Scientific).

MDM2-p53 interactions = test: Western blot of MDM2 and p53 protein levels in MCF-7 cells; format: cell-based, human; settings: 4 µM and 10 µM, 24-h incubation
Method: Thus, the effects of the examined compounds on the inhibition of MDM2-p53 interactions were examined. MDM2 and p53 protein levels were determined with Western blot analysis after the treatment of MCF-7 cells with compounds selected for their high selectivity index (48, 62, 134, 138, and 140). Compounds were examined at different concentrations (4 µM and 10 µM) following a 24-h incubation (Figure 7).
Proteins were transferred to an Immobilon-P PVDF membrane (Merck Millipore, Burlington, MA, USA). The membranes were incubated for 1 h using 5% low-fat milk solution in 1× TBS (50 mM Tris-Cl, pH 7.5, 150 mM NaCl) as a blocking buffer and then overnight at 4 °C in the same blocking solution containing one of the following antibodies: anti-MDM2 (rabbit, Sigma-Aldrich AB-166, Burlington, MA, USA), anti-p53 (rabbit, Sigma-Aldrich S15) or α-tubulin (rabbit, 11H10, Cell Signaling, Danvers, MA, USA). After washing (3 × 10 min in TBS), membranes were incubated for 2 h in room temperature with the adequate HRP-conjugated secondary antibody: goat anti-rabbit IgG (1:5000, Abcam, Cambridge, UK; cat. 97051). Membranes were developed using an HRP detection kit WesternBright Quantum (Advansta, San Jose, CA, USA; cat. K-12042).

[2] = test system: SKOV3 (ovarian carcinoma cell line); test: MTT assay, mutant p53 ovarian cancer cells SKOV-3; format: cell-based; settings: Homo sapiens, SK-OV-3, 72 h of incubation
Method: as §4, §3, §5

[3] = test system: A2780 (ovarian carcinoma cell line); test: MTT assay, wild-type p53 ovarian cancer cells A2780; format: cell-based; settings: Homo sapiens, A2780, 72 h of incubation
Method: as §4, §3, §5

[4] = test system: MCF7 (breast cancer cell line, ATCC, HTB-22); test: MTT assay, wild-type p53 breast cancer cells MCF-7 (Table 11); format: cell-based, human; settings: Homo sapiens, MCF7; 72 h of incubation, wild-type p53, second determination
Method: as §4, §3, §5

[5] = test system: HaCaT (human keratinocyte cell line); test: MTT cell viability assay, non-cancerous HaCaT; format: cell-based; settings: Homo sapiens, HaCaT, 72 h, 72 h of incubation, non-cancerous keratinocytes
Summary of the method: as §1

SMILES	IC50 (MCF-7 (breast cancer)) [µM]	IC50 (HeLa (cervical cancer)) [µM]	IC50 (HCT-116 (colon cancer)) [µM]	cytotoxic activity for all tested cell lines (in words) (HCT-116, MCF-7 and HeLa)	Selectivity Index (SI) MCF-7 (MCF-7 (breast cancer))	Selectivity Index (SI) HeLa (HeLa (cervical cancer))	IC50 [1] [µM]	MDM2 and p53 protein levels (MDM2-p53 interactions)	Selectivity Index (SI) HCT-116 (HCT-116 (colon cancer))	IC50 [2] [µM]	IC50 [3] [µM]	IC50 [4] [µM]	IC50 [5] [µM]
Cc1cc(S(=O)(=O)N=C2NCCN2)c(SCc2nc(N)nc(N3CCN(C)CC3)n2)cc1Cl [Compound 30]	145 ± 7	153 ± 5	170 ± 3	inactive	–	–	–	–	–	–	–	–	–
Cc1cc(S(=O)(=O)N=C2NCCN2Cc2ccccc2)c(SCc2nc(N)nc(N3CCN(c4ccc(Cl)cc4)CC3)n2)cc1Cl [Compound 62]	7 ± 0.1	107 ± 1	6 ± 0.1	–	4.5	0.3	4.9 ± 0.1	no changes	5.3	10.1 ± 0.1	3.9 ± 0.1	10.4 ± 0.1	32 ± 1
Cc1cc(S(=O)(=O)N=C2NCCN2Cc2ccccc2)c(SCc2nc(N)nc(N3CCN(c4ccc([N+](=O)[O-])cc4)CC3)n2)cc1Cl [Compound 67]	153 ± 5	140 ± 7	168 ± 8	inactive; also recorded: loss of activity	–	–	–	–	–	–	–	–	–
Cc1cc(S(=O)(=O)N=C2NCCN2Cc2ccccc2)c(SCc2nc(N)nc(N3CCN(S(=O)(=O)c4ccccc4)CC3)n2)cc1Cl [Compound 70]	490 ± 10	550 ± 21	300 ± 18	loss of activity	–	–	–	–	–	–	–	–	–
Cc1ccc(S(=O)(=O)N2CCN(c3nc(N)nc(CSc4cc(Cl)c(C)cc4S(=O)(=O)N=C4NCCN4Cc4ccccc4)n3)CC2)cc1 [Compound 71]	205 ± 4	265 ± 8	155 ± 6	loss of activity	–	–	–	–	–	–	–	–	27 ± 1
Cc1cc(S(=O)(=O)N=C2NCCN2Cc2ccc(C(F)(F)F)cc2)c(SCc2nc(N)nc(N(C)C)n2)cc1Cl [Compound 118]	10 ± 0.5	115 ± 2	105 ± 4	inactive	–	–	–	–	–	–	–	–	> 500
Cc1cc(S(=O)(=O)N=C2NCCN2Cc2ccc(C(F)(F)F)cc2)c(SCc2nc(N)nc(N3CCN(c4ccc(C(F)(F)F)cc4)CC3)n2)cc1Cl [Compound 134]	11 ± 0.1	10 ± 0.6	5 ± 0.2	–	2.0	2.2	3.2 ± 0.1	no changes	4.4	5.7 ± 0.1	3.9 ± 0.1	7.8 ± 0.1	22 ± 1
Cc1cc(S(=O)(=O)N=C2NCCN2Cc2ccc(C(F)(F)F)cc2)c(SCc2nc(N)nc(N3CCN(c4ccc(Cl)c(Cl)c4)CC3)n2)cc1Cl [Compound 138]	9 ± 0.5	9 ± 0.6	6 ± 0.2	–	–	–	4.4 ± 0.1	no changes	–	5.8 ± 0.1	2.2 ± 0.1	8.2 ± 0.1	22 ± 1
